Assay results taken from US8329904B2, “Azacyclic derivatives” (Hoffmann-La Roche Inc., priority 2009, dated 2012).

Target: T1, human HSL (Homo sapiens, UniProt Q05469)
T1 construct: overlapping PCR to generate a full length human HSL ORF with a 3′-His6 tag; His6 (C); made in house; host or cells: High 5 insect cells (baculovirus, pFast-BAC)
T1 sequence (Q05469 1-1076): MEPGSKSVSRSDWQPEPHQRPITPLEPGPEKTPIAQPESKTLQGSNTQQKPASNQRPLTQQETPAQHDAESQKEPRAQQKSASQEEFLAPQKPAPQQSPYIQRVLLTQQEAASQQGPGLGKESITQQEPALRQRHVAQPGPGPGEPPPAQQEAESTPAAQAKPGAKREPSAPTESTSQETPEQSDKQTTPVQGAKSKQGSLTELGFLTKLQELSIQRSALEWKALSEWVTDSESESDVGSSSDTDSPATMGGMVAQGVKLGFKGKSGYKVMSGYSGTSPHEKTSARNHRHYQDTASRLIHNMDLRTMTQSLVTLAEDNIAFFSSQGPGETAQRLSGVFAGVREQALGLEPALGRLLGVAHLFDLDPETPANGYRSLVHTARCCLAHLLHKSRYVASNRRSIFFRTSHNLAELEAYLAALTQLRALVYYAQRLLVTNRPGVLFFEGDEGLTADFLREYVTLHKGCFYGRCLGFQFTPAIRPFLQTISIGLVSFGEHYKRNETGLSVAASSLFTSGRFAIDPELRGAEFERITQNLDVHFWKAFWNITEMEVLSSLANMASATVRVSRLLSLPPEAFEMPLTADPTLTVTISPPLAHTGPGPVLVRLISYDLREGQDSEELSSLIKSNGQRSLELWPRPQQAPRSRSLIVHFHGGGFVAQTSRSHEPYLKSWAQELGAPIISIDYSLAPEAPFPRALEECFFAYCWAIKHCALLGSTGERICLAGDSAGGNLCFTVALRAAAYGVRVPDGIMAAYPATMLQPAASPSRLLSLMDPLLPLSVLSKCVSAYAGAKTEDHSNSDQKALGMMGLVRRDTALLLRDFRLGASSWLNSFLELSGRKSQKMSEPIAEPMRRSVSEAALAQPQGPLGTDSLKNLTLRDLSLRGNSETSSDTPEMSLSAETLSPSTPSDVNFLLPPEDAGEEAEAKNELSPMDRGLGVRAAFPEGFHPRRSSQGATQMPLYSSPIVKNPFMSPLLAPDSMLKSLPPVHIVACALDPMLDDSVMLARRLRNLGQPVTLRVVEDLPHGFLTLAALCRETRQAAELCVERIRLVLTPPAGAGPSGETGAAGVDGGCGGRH
Test: Human Hormone-Sensitive Lipase (HSL) Enzyme Inhibition Assay
Assay type: biochemical
Details: colorimetric assay, 2,3-dimercapto-1-propanol tributyrate (DMPT) substrate, 37° C. for 20 minutes, absorbance at 405 nm; read-out: HSL hum IC50
Outline: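 Colorimetric thioester hydrolysis: compounds in DMSO series mixed with DMPT (1.5 mM) in MOPS pH 7.2 with BSA, then baculovirus-expressed His6-tagged full-length human HSL added, 37° C, 20 min. DTNB plus detergents added, 15 min room temperature, absorbance at 405 nm.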

Row | SMILES | IC50 [nM]
1 | COc1ccc(CCN2CCC3(CCN(S(=O)(=O)c4ccccc4Cl)CC3)C2=O)cc1 [Example 240, 8-(2-Chloro-benzenesulfonyl)-2-[2-(4-methoxy-phenyl)-ethyl]-2,8-diaza-spiro[4.5]decan-1-one] | 60
2 | O=C1N(CCCc2ccccc2)CCC12CCN(S(=O)(=O)c1ccccc1Cl)CC2 [Example 241, 8-(2-Chloro-benzenesulfonyl)-2-(3-phenyl-propyl)-2,8-diaza-spiro[4.5]decan-1-one] | 90
3 | O=C1N(CCc2cccc(F)c2)CCC12CCN(S(=O)(=O)c1ccccc1Cl)CC2 [Example 243, 8-(2-Chloro-benzenesulfonyl)-2-[2-(3-fluoro-phenyl)-ethyl]-2,8-diaza-spiro[4.5]decan-1-one] | 50
4 | COc1cccc(CCN2CCC3(CCN(S(=O)(=O)c4ccccc4Cl)CC3)C2=O)c1 [Example 244, 8-(2-Chloro-benzenesulfonyl)-2-[2-(3-methoxy-phenyl)-ethyl]-2,8-diaza-spiro[4.5]decan-1-one] | 230
5 | O=C1N(CCc2cccc(C(F)(F)F)c2)CCC12CCN(S(=O)(=O)c1ccccc1Cl)CC2 [Example 245, 8-(2-Chloro-benzenesulfonyl)-2-[2-(3-trifluoromethyl-phenyl)-ethyl]-2,8-diaza-spiro[4.5]decan-1-one] | 100
6 | O=C1N(CCCCc2ccccc2)CCC12CCN(S(=O)(=O)c1ccccc1Cl)CC2 [Example 246, 8-(2-Chloro-benzenesulfonyl)-2-(4-phenyl-butyl)-2,8-diaza-spiro[4.5]decan-1-one] | 80
7 | CCc1ccc(N2CCC3(CCN(S(=O)(=O)c4ccccc4Cl)CC3)C2=O)cn1 [Example 250, 8-(2-Chloro-benzenesulfonyl)-2-(6-ethyl-pyridin-3-yl)-2,8-diaza-spiro[4.5]decan-1-one] | 110
8 | CC(C)NC(=O)N1CCC2(CC1)CCN(c1ccc(OC(F)(F)F)cc1)C2=O [Example 254, 1-Oxo-2-(4-trifluoromethoxy-phenyl)-2,8-diaza-spiro[4.5]decane-8-carboxylic acid isopropylamide] | 400
9 | O=C(N1CCCCC1)N1CCC2(CC1)CCN(c1ccc(OC(F)(F)F)cc1)C2=O [Example 256, 8-(Piperidine-1-carbonyl)-2-(4-trifluoromethoxy-phenyl)-2,8-diaza-spiro[4.5]decan-1-one] | 100
10 | CCc1ccc(N2CCC3(CCN(C(=O)Nc4ccc(F)cc4)CC3)C2=O)cc1 [Example 258, 2-(4-Ethyl-phenyl)-1-oxo-2,8-diaza-spiro[4.5]decane-8-carboxylic acid (4-fluoro-phenyl)-amide] | 400
11 | O=C(Nc1ccc(F)cc1)N1CCC2(CC1)CCN(c1ccc(OC(F)(F)F)cc1)C2=O [Example 259, 1-Oxo-2-(4-trifluoromethoxy-phenyl)-2,8-diaza-spiro[4.5]decane-8-carboxylic acid (4-fluoro-phenyl)-amide] | 400
12 | CCc1ccc(N2CCC3(CCN(C(=O)NCc4ccc(F)cc4)CC3)C2=O)cc1 [Example 260, 2-(4-Ethyl-phenyl)-1-oxo-2,8-diaza-spiro[4.5]decane-8-carboxylic acid 4-fluoro-benzylamide] | 310
13 | O=C(NCCc1ccccc1)N1CCC2(CC1)CCN(c1ccc(OC(F)(F)F)cc1)C2=O [Example 264, 1-Oxo-2-(4-trifluoromethoxy-phenyl)-2,8-diaza-spiro[4.5]decane-8-carboxylic acid phenethyl-amide] | 140
14 | O=C(N1CCCC1)N1CCC2(CC1)CCN(c1ccc(OC(F)(F)F)cc1)C2=O [Example 265, 8-(Pyrrolidine-1-carbonyl)-2-(4-trifluoromethoxy-phenyl)-2,8-diaza-spiro[4.5]decan-1-one] | 200
15 | CCCN(CC)C(=O)N1CCC2(CC1)CCN(c1ccc(OC(F)(F)F)cc1)C2=O [Example 268, 1-Oxo-2-(4-trifluoromethoxy-phenyl)-2,8-diaza-spiro[4.5]decane-8-carboxylic acid ethyl-propyl-amide] | 220

Second part, the molecule after the results:

Row | IC50 [nM] | SMILES
16 | 210 | O=C1N(CCc2ccccc2Cl)CCC12CCN(S(=O)(=O)c1ccccc1Cl)CC2 [Example 242, 8-(2-Chloro-benzenesulfonyl)-2-[2-(2-chloro-phenyl)-ethyl]-2,8-diaza-spiro[4.5]decan-1-one]
17 | 80 | O=C1N(CCc2cccc(Cl)c2)CCC12CCN(S(=O)(=O)c1ccccc1Cl)CC2 [Example 247, 8-(2-Chloro-benzenesulfonyl)-2-[2-(3-chloro-phenyl)-ethyl]-2,8-diaza-spiro[4.5]decan-1-one]
18 | 70 | O=C1N(CCc2ccc(Cl)c(Cl)c2)CCC12CCN(S(=O)(=O)c1ccccc1Cl)CC2 [Example 248, 8-(2-Chloro-benzenesulfonyl)-2-[2-(3,4-dichloro-phenyl)-ethyl]-2,8-diaza-spiro[4.5]decan-1-one]
19 | 460 | CC(Cc1ccc(F)cc1)N1CCC2(CCN(S(=O)(=O)c3ccccc3Cl)CC2)C1=O (stereo not shown) [Example 249, 8-(2-Chloro-benzenesulfonyl)-2-[2-(4-fluoro-phenyl)-1-methyl-ethyl]-2,8-diaza-spiro[4.5]decan-1-one]
20 | 470 | CCCNC(=O)N1CCC2(CC1)CCN(c1ccc(OC(F)(F)F)cc1)C2=O [Example 251, 1-Oxo-2-(4-trifluoromethoxy-phenyl)-2,8-diaza-spiro[4.5]decane-8-carboxylic acid propylamide]
21 | 180 | CCCN(C)C(=O)N1CCC2(CC1)CCN(c1ccc(CC)cc1)C2=O [Example 252, 2-(4-Ethyl-phenyl)-1-oxo-2,8-diaza-spiro[4.5]decane-8-carboxylic acid methyl-propyl-amide]
22 | 140 | CCCN(C)C(=O)N1CCC2(CC1)CCN(c1ccc(OC(F)(F)F)cc1)C2=O [Example 253, 1-Oxo-2-(4-trifluoromethoxy-phenyl)-2,8-diaza-spiro[4.5]decane-8-carboxylic acid methyl-propyl-amide]
23 | 180 | CCc1ccc(N2CCC3(CCN(C(=O)N4CCCCC4)CC3)C2=O)cc1 [Example 255, 2-(4-Ethyl-phenyl)-8-(piperidine-1-carbonyl)-2,8-diaza-spiro[4.5]decan-1-one]
24 | 610 | O=C(N1CCOCC1)N1CCC2(CC1)CCN(c1ccc(OC(F)(F)F)cc1)C2=O [Example 257, 8-(Morpholine-4-carbonyl)-2-(4-trifluoromethoxy-phenyl)-2,8-diaza-spiro[4,5]decan-1-one]
25 | 190 | O=C(NCc1ccc(F)cc1)N1CCC2(CC1)CCN(c1ccc(OC(F)(F)F)cc1)C2=O [Example 261, 1-Oxo-2-(4-trifluoromethoxy-phenyl)-2,8-diaza-spiro[4.5]decane-8-carboxylic acid 4-fluoro-benzylamide]
26 | 340 | O=C(NCc1ccccc1Cl)N1CCC2(CC1)CCN(c1ccc(OC(F)(F)F)cc1)C2=O [Example 262, 1-Oxo-2-(4-trifluoromethoxy-phenyl)-2,8-diaza-spiro[4.5]decane-8-carboxylic acid 2-chloro-benzylamide]
27 | 160 | CCc1ccc(N2CCC3(CCN(C(=O)NCCc4ccccc4)CC3)C2=O)cc1 [Example 263, 2-(4-Ethyl-phenyl)-1-oxo-2,8-diaza-spiro[4.5]decane-8-carboxylic acid phenethyl-amide]
28 | 330 | CCN(CC)C(=O)N1CCC2(CC1)CCN(c1ccc(OC(F)(F)F)cc1)C2=O [Example 266, 1-Oxo-2-(4-trifluoromethoxy-phenyl)-2,8-diaza-spiro[4.5]decane-8-carboxylic acid diethylamide]
29 | 150 | CC1CCCN1C(=O)N1CCC2(CC1)CCN(c1ccc(OC(F)(F)F)cc1)C2=O (stereo not shown) [Example 267, 8-(2-Methyl-pyrrolidine-1-carbonyl)-2-(4-trifluoromethoxy-phenyl)-2,8-diaza-spiro[4.5]decan-1-one]
30 | 70 | CCCCN(C)C(=O)N1CCC2(CC1)CCN(c1ccc(OC(F)(F)F)cc1)C2=O [Example 269, 1-Oxo-2-(4-trifluoromethoxy-phenyl)-2,8-diaza-spiro[4.5]decane-8-carboxylic acid butyl-methyl-amide]
31 | 70 | CC(C)CN(C)C(=O)N1CCC2(CC1)CCN(c1ccc(OC(F)(F)F)cc1)C2=O [Example 270, 1-Oxo-2-(4-trifluoromethoxy-phenyl)-2,8-diaza-spiro[4.5]decane-8-carboxylic acid isobutyl-methyl-amide]
